Test results as given in patent US9072734B2, “Quaternary ammonium salt compounds” (Teijin Pharma Limited, priority 2009, dated 2015).
Counter-ions that a name gives are not always drawn.

Tests used:
[1] = target: T1, human β2 adrenergic receptor (Homo sapiens, UniProt P07550); assay: Whole-cell cAMP Flashplate assay using CHO-K1 cells stably expressing human β2 adrenergic receptor; assay type: cell-based; settings: cAMP production
T1 construct: expressed in transfected cells; host or cells: CHO-K1
T1 sequence (P07550 whole entry): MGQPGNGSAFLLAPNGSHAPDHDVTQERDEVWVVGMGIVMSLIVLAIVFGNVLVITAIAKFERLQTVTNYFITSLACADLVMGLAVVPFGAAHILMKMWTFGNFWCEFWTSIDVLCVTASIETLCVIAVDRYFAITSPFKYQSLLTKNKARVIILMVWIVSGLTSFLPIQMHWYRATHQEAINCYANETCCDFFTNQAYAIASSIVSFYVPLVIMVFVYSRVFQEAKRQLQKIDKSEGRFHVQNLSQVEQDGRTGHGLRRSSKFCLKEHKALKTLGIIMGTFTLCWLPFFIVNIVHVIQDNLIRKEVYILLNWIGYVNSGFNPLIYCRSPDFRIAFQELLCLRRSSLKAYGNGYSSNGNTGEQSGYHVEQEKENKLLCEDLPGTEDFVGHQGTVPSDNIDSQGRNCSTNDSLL

[2] = tested on: acetylcholine-induced bronchoconstriction in guinea pigs; assay: Effects on acetylcholine-induced bronchoconstriction in guinea pigs; assay type: in vivo, guinea pig; settings: Cavia porcellus; 24 hours after 25 μg/kg of the compounds were administered; read-out: percentage of bronchoconstriction suppression with respect to the acetylcholine stimulation
Description: These in vivo assays are used to evaluate the bronchoprotective effects based on the M3 muscarinic receptor antagonist activity and the β2 adrenergic receptor agonist activity of test compounds. Hartley male guinea pigs (Nippon SLC, Inc.) weighing about 400-500 g were used. The animals were anesthetized by inhalation of Fluothane (Takeda Pharmaceutical Company Limited) in a plastic box. The test compounds were dissolved in physiological saline containing DMSO, and administered through the nasal cavity into the trachea at a dose of 0.04-25 μg/kg and at a volume of 0.4 mL/kg. For control animals, solvent without a test compound was administered. In general, animals awake several minutes after completion of the administration. The animals were anesthetized with an intraperitoneal administration of 33% urethane/0.8% α-chloralose at a dose of 3 mL/kg. In order to intravenously administer acetylcholine or histamine, a catheter was inserted into the carotid artery. In order to measure artificial respiration and airway ventilation pressure, a cannula was inserted into the trachea. Artificial respiration was applied to the animals at a volume of 10 mL/kg and at a frequency of 60/minute, using a ventilator (Harvard Apparatus). The airway ventilation pressure was measured by the Konzett-Roessler method using a general respiratory function analysis system (M.I.P.S). Prior to administration of acetylcholine or histamine, the airway ventilation pressure was measured and baseline values were recorded. Then, physiological saline was administered through the carotid artery catheter at a volume of 0.4 mL/kg, and the airway ventilation pressure was measured. Bronchoconstrictor response was induced by administering acetylcholine (40 μg/kg, 0.4 mL/kg) or histamine (15 μg/kg, 0.4 mL/kg) through the carotid artery catheter one hour after the administration of the test compounds, and the airway ventilation pressure at the maximum contractile response was recorded. In addition, in order to evaluate duration of action of the test compounds, the above-mentioned dose of acetylcholine or histamine was administered, 1 hour, 6 hours, 12 hours, 18 hours, and 24 hours after the administration of test compounds, and the airway ventilation pressure was measured in the same way. The percentage of suppression by the test compounds with respect to the airway contractile response was calculated according to the following formula. (%) Percentage of the airway constriction suppression=(Airway ventilation pressure of test compound-dosed and acetylcholine- or histamine-dosed animals−Baseline value)/(Airway ventilation pressure of acetylcholine- or histamine-dosed animals−Baseline value)×100
The 50% inhibitory doses (ID50 values) of the test compounds were analyzed by a sigmoidal logistic model using XLfit4 (IDBS, Ltd.) for the percentage of the bronchoconstriction suppression at different doses of the test compounds.

[3] = target: T2, human M3 muscarinic receptor (Homo sapiens, UniProt P20309); assay: Inhibitory effect on methacholine-induced calcium influx, FLIPR assay, CHO-K1 cells stably expressing the human M3 muscarinic receptor; assay type: cell-based; settings: inhibition of calcium influx induced by methacholine
T2 construct: expressed in transfected cells; host or cells: CHO-K1
T2 sequence (P20309 whole entry): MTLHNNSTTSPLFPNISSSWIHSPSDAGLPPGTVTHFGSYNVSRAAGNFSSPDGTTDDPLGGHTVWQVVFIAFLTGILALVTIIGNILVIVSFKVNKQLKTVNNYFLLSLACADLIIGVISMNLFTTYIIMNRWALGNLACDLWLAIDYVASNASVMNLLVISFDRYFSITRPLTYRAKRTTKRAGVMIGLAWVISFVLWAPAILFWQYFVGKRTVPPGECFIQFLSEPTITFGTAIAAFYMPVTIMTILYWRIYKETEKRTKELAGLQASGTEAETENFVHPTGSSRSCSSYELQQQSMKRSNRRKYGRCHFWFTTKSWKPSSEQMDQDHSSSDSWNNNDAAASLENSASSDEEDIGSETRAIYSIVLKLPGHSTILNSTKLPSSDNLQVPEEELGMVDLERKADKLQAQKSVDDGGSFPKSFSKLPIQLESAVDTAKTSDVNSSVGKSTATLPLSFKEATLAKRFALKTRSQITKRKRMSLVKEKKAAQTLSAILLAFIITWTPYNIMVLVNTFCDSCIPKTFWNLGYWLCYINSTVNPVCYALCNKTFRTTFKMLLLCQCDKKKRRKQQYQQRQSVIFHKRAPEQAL
In short: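 Dye-loaded hM3 CHO-K1 cells were preincubated 180 s with compound solutions prepared at 10 two-fold concentrations (0.01–1000 nM). A 30 nM methacholine solution was then added. Fluorescence was traced for 170 s; max−min signal gave % inhibition against agonist and no-agonist controls, and IC50 came from a four-parameter logistic fit.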

## COc1cc(NC(=O)CCc2ccc(-c3ccccc3)c(NC(=O)OC3CC[N+](C)(C)CC3)c2)ccc1CNC[C@H](O)c1ccc(O)c2[nH]c(=O)ccc12 [Example 6, 4-({[5-(2-{[4-({[(2R)-2-hydroxy-2-(8-hydroxy-2-oxo-1,2-dihydroquinolin-5-yl)ethyl]amino}methyl)-3-methoxyphenyl]carbamoyl}ethyl)-2-phenylphenyl]carbamoyl}oxy)-1,1-dimethylpiperidin-1-ium trifluoroacetate]
[1]
  EC50: 1.7 nM
[2]
  inhibition in vivo at 0.025 mg/kg: ≥ 50%
[3]
  IC50: 9 nM

## COc1cc(NC(=O)CCCc2ccc(-c3ccccc3)c(NC(=O)OC3CC[N+](C)(C)CC3)c2)c(Br)cc1CNC[C@H](O)c1ccc(O)c2[nH]c(=O)ccc12 [Example 25, 4-({[5-(3-{[2-bromo-4-({[(2R)-2-hydroxy-2-(8-hydroxy-2-oxo-1,2-dihydroquinolin-5-yl)ethyl]amino}methyl)-5-methoxyphenyl]carbamoyl}propyl)-2-phenylphenyl]carbamoyl}oxy)-1,1-dimethylpiperidin-1-ium trifluoroacetate]
[1]
  EC50: 0.4 nM
[2]
  inhibition in vivo at 0.025 mg/kg: ≥ 50%
[3]
  IC50: 19 nM

## C[N+]1(C)CCC(OC(=O)Nc2cc(CCCOc3ccc(CCNC[C@H](O)c4ccc(O)c5[nH]c(=O)ccc45)cc3)ccc2-c2ccccc2)CC1 [Example 77, 4-{[(5-{3-[4-(2-{[(2R)-2-hydroxy-2-(8-hydroxy-2-oxo-1,2-dihydroquinolin-5-yl)ethyl]amino}ethyl)phenoxy]propyl}-2-phenylphenyl)carbamoyl]oxy}-1,1-dimethylpiperidin-1-ium trifluoroacetate]
[1]
  EC50: 1.5 nM
[2]
  inhibition in vivo at 0.025 mg/kg: ≥ 50%
[3]
  IC50: 36.3 nM

## COc1cc(NC(=O)CCc2ccc(-c3ccccc3)c(NC(=O)OC3CC[N+](C)(C)CC3)c2)c(Cl)cc1CNC[C@H](O)c1ccc(O)c2[nH]c(=O)ccc12 [Example 2, 4-({[5-(2-{[2-chloro-4-({[(2R)-2-hydroxy-2-(8-hydroxy-2-oxo-1,2-dihydroquinolin-5-yl)ethyl]amino}methyl)-5-methoxyphenyl]carbamoyl}ethyl)-2-phenylphenyl]carbamoyl}oxy)-1,1-dimethylpiperidin-1-ium trifluoroacetate]
[1]
  EC50: 1.1 nM
[2]
  inhibition in vivo at 0.025 mg/kg: ≥ 50%
[3]
  IC50: 19.3 nM

## C[N+]1(C)CCC(OC(=O)Nc2cc(CCCC(=O)Nc3ccc(CNC[C@H](O)c4ccc(O)c5[nH]c(=O)ccc45)cc3Cl)ccc2-c2ccccc2)CC1 [Example 19, 4-({[5-(3-{[2-chloro-4-({[(2R)-2-hydroxy-2-(8-hydroxy-2-oxo-1,2-dihydroquinolin-5-yl)ethyl]amino}methyl)phenyl]carbamoyl}propyl)-2-phenylphenyl]carbamoyl}oxy)-1,1-dimethylpiperidin-1-ium trifluoroacetate]
[1]
  EC50: 1.2 nM
[2]
  inhibition in vivo at 0.025 mg/kg: ≥ 50%
[3]
  IC50: 8.7 nM

## COc1cc(NC(=O)CCCc2ccc(-c3ccccc3)c(NC(=O)OC3CC[N+](C)(C)CC3)c2)c(Cl)cc1CNC[C@H](O)c1ccc(O)c2[nH]c(=O)ccc12 [Example 18, 4-({[5-(3-{[2-chloro-4-({[(2R)-2-hydroxy-2-(8-hydroxy-2-oxo-1,2-dihydroquinolin-5-yl)ethyl]amino}methyl)-5-methoxyphenyl]carbamoyl}propyl)-2-phenylphenyl]carbamoyl}oxy)-1,1-dimethylpiperidin-1-ium trifluoroacetate]
[1]
  EC50: 0.6 nM
[2]
  inhibition in vivo at 0.025 mg/kg: ≥ 50%
[3]
  IC50: 8.9 nM

## COc1cc(NC(=O)CCCc2ccc(-c3ccccc3)c(NC(=O)OC3CC[N+](C)(C)CC3)c2)ccc1CNC[C@H](O)c1ccc(O)c2[nH]c(=O)ccc12 [Example 20, 4-({[5-(3-{[4-({[(2R)-2-hydroxy-2-(8-hydroxy-2-oxo-1,2-dihydroquinolin-5-yl)ethyl]amino}methyl)-3-methoxyphenyl]carbamoyl}propyl)-2-phenylphenyl]carbamoyl}oxy)-1,1-dimethylpiperidin-1-ium trifluoroacetate]
[1]
  EC50: 2.6 nM
[2]
  inhibition in vivo at 0.025 mg/kg: ≥ 50%
[3]
  IC50: 16.8 nM

## C[N+]1(C)CCC(OC(=O)Nc2cc(CCC(=O)Nc3ccc4cc(CNC[C@H](O)c5ccc(O)c6[nH]c(=O)ccc56)ccc4c3)ccc2-c2ccccc2)CC1 [Example 12, 4-({[5-(2-{[6-({[(2R)-2-hydroxy-2-(8-hydroxy-2-oxo-1,2-dihydroquinolin-5-yl)ethyl]amino}methyl)naphthalen-2-yl]carbamoyl}ethyl)-2-phenylphenyl]carbamoyl}oxy)-1,1-dimethylpiperidin-1-ium trifluoroacetate]
[1]
  EC50: 4.6 nM
[2]
  inhibition in vivo at 0.025 mg/kg: ≥ 50%
[3]
  IC50: 26.4 nM
